# Reference: publication PMC4834588 (British Journal of Clinical Pharmacology, 2016)
# Like-named read-outs stand apart in the source and are kept apart here. Marks after values point to notes of the source that are not given here. Numbered stars: 1 amine (or outer) side, 2 acyl side, 3 side chain; on linkers, the order of the positions; unused ones are H or OH. Bridge positions count the residues as written; N and C are the ends. Square brackets hold non-standard residues; d marks the D form. Peptide text beside a SMILES is read from it. I, II: the chains in the order shown. Actinocin(9to1) = Cc1c2oc3c(C)ccc(C(=O)[*:1])c3nc-2c(C(=O)[*:2])c(N)c1=O; NMeV = CN[C@H](C(=O)O)C(C)C; Sar = CNCC(=O)O
# Assays:
# physchem = assay: physchem
# Source text: The method for the generation of Log P values by high performance liquid chromatography (HPLC) was adapted from that described by Zhao et al. 22. Briefly, Log P correlates with the retention time of a compound by a solid phase C18 column. […] By using compounds with known Log P values, a standard curve can be determined and the Log P of a compound of interest obtained by interpolation. A Waters HPLC system, linked to an Agilent fluorescence detector, was used along with a Luna 5 μ C18 50 × 2.0 mm HPLC column preceded by a guard column (Phenomenex, Macclesfield, UK). […] The sample holder for the HPLC was set at 25 °C in order to prevent freezing of the DMSO during the run. The mobile phase consisted of deionized water and acetonitrile with a constant gradient of 40–60%, respectively.
# Prior to each run the column was equilibrated to the running conditions for 10 minutes, with the flow rate set to 0.5 ml min^−1. A 20‐μl aliquot of each sample was injected into the column and its retention time measured relative to that of the sodium nitrate peak. Peaks were analysed using Empower software (Waters, Wilmslow, UK).
# [1] = Blood:plasma partitioning in whole blood from a healthy donor; type: in vitro ADME; settings: human
# Method: All experiments were performed in triplicate. An aliquot of 180 μl whole blood from a healthy donor was added to 20 μL of each Act D solution (final concentrations 0.4, 2 and 10 μg ml^−1) in Eppendorf tubes, followed by gentle rotation for 1 min before transfer to an incubator (Infors HT Multitron Standard, Infors AG, Basel) at 37 °C for 1 h and 40 μl of plasma was transferred to a new Eppendorf and mixed with 40 μl of fresh blood.
# For the blood samples, 40 μl of blood was transferred to a new Eppendorf and mixed with 40 μl blank plasma. All samples were then mixed with 160 μl of the extraction solution and frozen at −80 °C for 1 h. Samples were then centrifuged at 2000 g and 4 °C for 1 h and 100 μl of supernatant from each sample was transferred to HPLC vials and stored at −20 °C overnight. LC–MS analysis was performed as described above for the analysis of transporter kinetic samples. The blood‐to‐plasma ratio was calculated from the following equation (where Kb/p is the whole blood‐to‐plasma partition coefficient, Ke/p is the red blood cell‐to‐plasma partition and H is the haematocrit): (1) Blood‐to‐plasmaKb/p=Ke/p×H+1−H
# [2] = PBPK modelling and simulation (Simcyp version 14 release 1); set-up: species or system human; settings: PBPK compound file input; determined from chemical structure
# Method: Modelling and simulation were performed using Simcyp version 14 release 1 (Simcyp Ltd, a Certara company, Sheffield, UK). The compound file for Act D was compiled using data generated in the methods described above and with additional inputs from web databases and literature sources as shown in Table 2. The Simcyp software provides a framework for assessing the PK of a drug by defining certain characteristics within a compound file. Using this compound file, pharmacokinetic data can then be simulated in individuals of a virtual population of interest, allowing for the impact of inter‐individual differences to be assessed 17, 18.
# For the simulation of clinical trial data, information was taken from previous work by Hill et al., who studied 117 patients administered Act D intravenously 8. The population was split into three age categories: 1–<6 (n = 67), 6–<10 (n = 11) and 10–20 years (n = 39). These age bins were further subdivided based on the dose of Act D received (Table 1). […]
# The Simcyp simulations output the mean and the 5th and 95th percentile for the concentration−time profile as well as the calculated mean, median and geometric mean of the simulated population. […] In addition, the mean fold‐prediction of AUC against observed data was determined; a two‐fold under‐ or over‐prediction was considered a reasonable prediction and within 1.5‐fold a good prediction. […]
# ABCB1 (MDR1) = ABCB1 (MDR1) (Homo sapiens, UniProt P08183); settings: basal to apical, 0.1-100 μM Act D, 1 h, MDCKII-MDR1 minus MDCKII-WT
# Method: Polarized Madin‐Darby canine kidney (MDCKII) cell line wild‐type and cells transfected with ABCB1 (MDR1) were obtained from Dr. A.H. Schinkel (Amsterdam, the Netherlands).
# For drug transport experiments, 12‐mm Corning Transwell polycarbonate membrane cell culture inserts with 0.4‐μm pores were used (Sigma Aldrich, UK). Cells (passage 8–12) were seeded at 1.4 × 10^4 cells ml^−1 in growth medium and grown on filter for 5 days before the experiment was performed, with medium being changed every 24 hours. […] Growth medium was aspirated from both the apical and basal compartments, and the cells were washed twice with pre‐warmed phosphate‐buffered saline adjusted to pH 7.4. […] Lucifer yellow (60 μM) was added as a paracellular control to test for the formation of a fully confluent monolayer. A limit of 2% Lucifer yellow movement was set as the cutoff with the results for any wells exceeding that threshold being rejected.
# The rate of efflux (μM min^−1/10^6 cells) due to MDR1 was determined by subtracting the rate of flux seen across the MDCKII‐WT cells from the flux across the MDCKII‐MDR1 cells.
# [3] = cited from earlier work
# [4] = cited from earlier work; remark: listed apart in the source
# [5] = set-up: method as in http://www.drugbank.ca/drugs/DB00970; settings: PBPK compound file input; ref http://www.drugbank.ca/drugs/DB00970; cited from earlier work
# [6] = set-up: method as in PMID 15143082; settings: cited from earlier work
# Chain of ABCB1 (MDR1) (P08183 whole entry): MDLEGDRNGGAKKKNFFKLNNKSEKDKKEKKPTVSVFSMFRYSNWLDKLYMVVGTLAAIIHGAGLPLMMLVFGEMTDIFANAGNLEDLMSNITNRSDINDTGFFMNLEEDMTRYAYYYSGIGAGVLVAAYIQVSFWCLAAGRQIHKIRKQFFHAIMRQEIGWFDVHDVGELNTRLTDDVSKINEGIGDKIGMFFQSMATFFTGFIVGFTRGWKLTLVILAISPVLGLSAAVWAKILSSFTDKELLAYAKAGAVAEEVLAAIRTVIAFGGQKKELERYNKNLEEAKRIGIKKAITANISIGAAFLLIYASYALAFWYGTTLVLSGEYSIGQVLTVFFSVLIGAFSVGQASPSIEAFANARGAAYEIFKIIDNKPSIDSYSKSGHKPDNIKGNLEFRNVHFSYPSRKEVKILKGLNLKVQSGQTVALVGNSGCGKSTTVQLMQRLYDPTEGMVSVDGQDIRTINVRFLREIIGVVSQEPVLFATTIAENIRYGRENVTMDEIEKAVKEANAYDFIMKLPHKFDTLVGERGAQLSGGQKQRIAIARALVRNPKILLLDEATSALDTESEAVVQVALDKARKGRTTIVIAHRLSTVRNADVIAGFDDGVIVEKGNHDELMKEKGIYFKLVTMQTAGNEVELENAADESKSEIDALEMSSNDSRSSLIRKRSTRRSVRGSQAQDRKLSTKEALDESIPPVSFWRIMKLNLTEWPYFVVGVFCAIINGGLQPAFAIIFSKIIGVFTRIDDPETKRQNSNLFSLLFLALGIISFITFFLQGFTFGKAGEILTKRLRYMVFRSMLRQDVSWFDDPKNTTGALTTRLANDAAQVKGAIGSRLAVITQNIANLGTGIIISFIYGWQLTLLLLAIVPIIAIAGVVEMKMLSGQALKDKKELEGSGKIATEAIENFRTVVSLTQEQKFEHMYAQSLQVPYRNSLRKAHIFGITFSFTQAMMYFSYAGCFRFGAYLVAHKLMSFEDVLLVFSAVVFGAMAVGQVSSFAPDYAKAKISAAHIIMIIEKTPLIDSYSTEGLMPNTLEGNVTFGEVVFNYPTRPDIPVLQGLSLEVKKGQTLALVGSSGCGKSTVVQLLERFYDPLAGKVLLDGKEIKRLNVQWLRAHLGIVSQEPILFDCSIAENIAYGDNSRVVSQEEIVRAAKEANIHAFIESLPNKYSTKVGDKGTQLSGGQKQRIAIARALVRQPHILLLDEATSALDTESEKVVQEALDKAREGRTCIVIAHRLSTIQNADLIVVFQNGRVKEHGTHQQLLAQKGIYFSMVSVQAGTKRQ
compound,measurement,setting,value
"Cc1c2oc3c(C)ccc(C(=O)N[C@@H]4C(=O)N[C@H](C(C)C)C(=O)N5CCC[C@H]5C(=O)N(C)CC(=O)N(C)[C@@H](C(C)C)C(=O)O[C@@H]4C)c3nc-2c(C(=O)N[C@@H]2C(=O)N[C@H](C(C)C)C(=O)N3CCC[C@H]3C(=O)N(C)CC(=O)N(C)[C@@H](C(C)C)C(=O)O[C@@H]2C)c(N)c1=O [Act D, Actinomycin D] (I: T[dV]P[Sar][NMeV] / II: T[dV]P[Sar][NMeV]; ester I:1-I:C, II:1-II:C; linker I:N-II:N via Actinocin(9to1))",Experimental Log P,physchem,4.77
same,chromatographic logP,physchem,4.47
same,blood plasma ratio at 1 h,"[1]; 37 °C, 1 h, 95% confidence interval 0.03, read-out: Mean blood-to-plasma ratio",0.62
same,blood plasma ratio at 1 h,"[1]; whole blood spiked with 0.2 to 10 μg ml^−1, read-out: Blood-to-plasma ratios (range observed)",0.59 to 0.65
same,Compound type,[2],Neutral
same,Maximum rate of flux (J max),ABCB1 (MDR1),1142 μM min^−1/10^6 cells
same,Michaelis–Menten constant (K m),ABCB1 (MDR1),20 µM
same,Mean observed AUC ± SD (AUC0-26h),"[3]; age 1–<6 years, dose 0.60 mg m^−2 IV",82 ± 18 ng·h/mL
same,Mean observed AUC ± SD (AUC0-26h),"[3]; age 1–<6 years, dose 0.76 mg m^−2 IV",63 ± 8 ng·h/mL
same,Mean observed AUC ± SD (AUC0-26h),"[3]; age 1–<6 years, dose 1.01 mg m^−2 IV",71 ± 33 ng·h/mL
same,Mean observed AUC ± SD (AUC0-26h),"[3]; age 1–<6 years, dose 1.12 mg m^−2 IV",82 ± 16 ng·h/mL
same,Mean observed AUC ± SD (AUC0-26h),"[3]; age 1–<6 years, dose 1.48 mg m^−2 IV",111 ± 16 ng·h/mL
same,Mean observed AUC ± SD (AUC0-26h),"[3]; age 1–<6 years, dose 1.55 mg m^−2 IV",128 ± 51 ng·h/mL
same,Mean observed AUC ± SD (AUC0-26h),"[3]; age 6–<10 years, dose 0.77 mg m^−2 IV",80 ± 28 ng·h/mL
same,Mean observed AUC ± SD (AUC0-26h),"[3]; age 6–<10 years, dose 1.50 mg m^−2 IV",130 ± 12 ng·h/mL
same,Mean observed AUC ± SD (AUC0-26h),"[3]; age 10–20 years, dose 0.74 mg m^−2 IV",45 ± 8 ng·h/mL
same,Mean observed AUC ± SD (AUC0-26h),"[3]; age 10–20 years, dose 1.04 mg m^−2 IV",50 ± 12 ng·h/mL
same,Mean observed AUC ± SD (AUC0-26h),"[3]; age 10–20 years, dose 1.48 mg m^−2 IV",120 ± 44 ng·h/mL
same,Mean AUC0-26h observed,[3]; observed in patients (abstract),93 ng·h/mL
same,CL Renal,"[4]; PBPK input, CV of 60% used, ref Tattersall et al. 5",1.8 (l h^−1) ^*
same,Administered dose eliminated in the urine and faeces,[4]; after nine days,approximately 35%
same,Fraction unbound,[5],0.95
same,Likelihood of developing SOS,[6]; patients over three years of age,4%
same,Chance of developing SOS,[6]; patients under three years of age,15%
C[C@@H]1C[C@H]2[C@@H]3CCC4=CC(=O)C=C[C@]4(C)[C@@]3(F)[C@@H](O)C[C@]2(C)[C@@]1(O)C(=O)CO [Dexamethasone],chromatographic logP,physchem; reversed-phase C18 HPLC column (Luna 5 µ C18 50 × 2.0 mm),1.8
